Source: PMC4829596 (Frontiers in Microbiology, 2016)
In brackets after ≈: the same amount, converted by molar mass. Read-outs that look alike come from different tables or passages of the source.

Columns and labels:
S. aureus = assay: Determination of MIC; format: cell-based, Staphylococcus aureus; details: Staphylococcus aureus
Protocol: (§1) Minimal inhibitory concentrations (MICs) of purified compounds and commercially available standards were assessed against S. aureus, C. albicans, P. aeruginosa, K. pneumoniae, E. coli, ESBL K. pneumoniae, ESBL E. coli and the two MRSA strains (B337919 and B335466). Stock solutions of 5 × 10^6 μg/l of p-hydroxybenzaldehyde, and phenyllactic acid were prepared using water. Stock solutions of 1 × 10^8 μg/l indole-3-carboxylic acid, PAA and indole-3-acetic acid were prepared using methanol and diluted with water (working solution of 5 × 10^6 μg/l). Stocks of 1 × 10^6 μg/l of cFP and cPM were dissolved in water. […] Methanol and water were used as control.

[1] = system: MRSA Staphylococcus (S.) aureus B335466; assay: Determination of MIC; format: cell-based
Protocol: as §1

[2] = system: MRSA Staphylococcus (S.) aureus B337919; assay: Determination of MIC; format: cell-based
Protocol: as §1

P. aeruginosa = assay: Determination of MIC; format: cell-based, Pseudomonas aeruginosa; details: Pseudomonas aeruginosa
Protocol: as §1

E. coli = assay: Determination of MIC; format: cell-based, Escherichia coli; details: Escherichia coli
Protocol: as §1

ESBL E. coli = assay: Determination of MIC; format: cell-based, Escherichia coli; details: Escherichia coli
Protocol: as §1

ESBL K. pneumoniae = assay: Determination of MIC; format: cell-based, Klebsiella pneumoniae; details: Klebsiella pneumoniae
Protocol: as §1

K. pneumoniae = assay: Determination of MIC; format: cell-based, Klebsiella pneumoniae; details: Klebsiella pneumoniae
Protocol: as §1

[3] = system: human hepatocytic (HepG2) cells; assay: Cytotoxicity assay, lactate dehydrogenase release; format: cell-based; details: for % of living HepG2 cells: compound 2mg/ml, 24 h, LDH
Protocol: (§2) Cytotoxicity of the fungal extract and the identified compounds was determined measuring lactate dehydrogenase release using human intestinal epithelial (Caco2) and human hepatocytic (HepG2) cells. […] Cells were seeded into 96-well plates (5 × 10^4 cells per well) and incubated until a confluent cell layer had developed. After discarding of the media cells were incubated with 50 μl of media and 50 μl of fungal extract or compound (final concentration: PAA 2 × 10^6 μg/l, 4FP 2 × 10^6 μg/l, ICA 2 × 10^6 μg/l, IAA 2 × 10^5 μg/l, PLA 2 × 10^6 μg/l, cPM 2 × 10^6μg/l and cFP 2 × 10^6 μg/l) for 24 h at 37°C. […] LDH release was measured according to the manufacturer’s protocol (Sigma–Aldrich, USA).

[4] = system: human intestinal epithelial (Caco2) cells; assay: Cytotoxicity assay, lactate dehydrogenase release; format: cell-based; details: for dead cells: at the determined MIC concentrations, Caco2; for % of living Caco2 cells: compound 2mg/ml, 24 h, LDH
Protocol: as §2

Caco2 cells = assay: XTT assay, metabolic active cells; format: cell-based, human; details: for % of metabolic active Caco2 cells: compound 2mg/ml, XTT
Protocol: (§3) In parallel the % of metabolic cells was measured using the XTT [2,3-Bis-(2-methoxy-4-nitro-5-sulfophenyl)-2H-tetra zolium-5-carboxanilide] assay (Thermo Scientific). Briefly, after treatment with the fungal extract or the different compounds cells were incubated with XTT and phenanzine methosulfate (Thermo Scientific) for 2 h. Absorbance was measured at 450 nm and % of metabolic active cells was calculated versus the control sample (media). As controls we incubated the cells without fungal cultures or compound, and with VPA alone.

HepG2 cells = assay: XTT assay, metabolic active cells; format: cell-based, human; details: compound 2mg/ml
Protocol: as §3

C. albicans = assay: Determination of MIC; format: cell-based, Candida albicans; details: Candida albicans
Protocol: as §1

Caco2 and HepG2 cells = format: cell-based; details: at the determined MIC concentrations; range over compounds and cell lines
Protocol: as §2

[5] = set-up: method as in Rodloff et al., 2008; details: ref Rodloff et al., 2008; cited from earlier work
[6] = ESBL K. pneumoniae, read-out: MIC

SMILES	MIC (S. aureus; S. aureus, read-out: MIC)	MIC ([1]; MRSA 335, read-out: MIC)	MIC ([2]; MRSA 337, read-out: MIC)	MIC (P. aeruginosa)	MIC (E. coli; E. coli, read-out: MIC)	MIC (ESBL E. coli; ESBL E. coli, read-out: MIC)	MIC (ESBL K. pneumoniae; [6])	MIC (K. pneumoniae; K. pneumoniae, read-out: MIC)	% of living HepG2 cells [3]	dead cells [4]	% of living Caco2 cells [4]	% of metabolic active Caco2 cells (Caco2 cells)	% of metabolic active HepG2 cells (HepG2 cells)	dead cells (Caco2 and HepG2 cells)	also measured
O=C(O)C(O)Cc1ccccc1 (centres unmarked) [PLA, phenyllactic acid]	2000 mg/L (≈ 12 mM)	2000 mg/L (≈ 12 mM)	2000 mg/L (≈ 12 mM)	5000 mg/L (≈ 30.1 mM)	2500 mg/L (≈ 15 mM)	5000 mg/L (≈ 30.1 mM)	5000 mg/L (≈ 30.1 mM)	2500 mg/L (≈ 15 mM)	54.63%	19.7%	19.65%	41.48%	66.01%		dead cells ([3]; at the determined MIC concentrations, HepG2): 54.63%
O=Cc1ccc(O)cc1 [4FP, p-hydroxybenzaldehyde]	2000 mg/L (≈ 16.4 mM)	2500 mg/L (≈ 20.5 mM)	2500 mg/L (≈ 20.5 mM)	2500 mg/L (≈ 20.5 mM)	2500 mg/L (≈ 20.5 mM)	2500 mg/L (≈ 20.5 mM)	2500 mg/L (≈ 20.5 mM)	2500 mg/L (≈ 20.5 mM)	7.86%	25.9%	25.94%	32.06%	57.33%		MIC (C. albicans; C. albicans, read-out: MIC): 1000 mg/L (≈ 8.19 mM); metabolic active cells (Caco2 cells; human): 57.3%
O=C(O)Cc1ccccc1 [PAA, phenylacetic acid]									6.99%		6.53%	113.54%	122.9%	3.99–8.61%	MIC (S. aureus): 2000 mg/L (≈ 14.7 mM); MIC [1]: 2000 mg/L (≈ 14.7 mM); MIC [2]: 2000 mg/L (≈ 14.7 mM); MIC (C. albicans): 2500 mg/L (≈ 18.4 mM); MIC (E. coli): 2000 mg/L (≈ 14.7 mM); MIC (ESBL E. coli): 2000 mg/L (≈ 14.7 mM); MIC (ESBL K. pneumoniae): 2500 mg/L (≈ 18.4 mM); MIC (K. pneumoniae): 2500 mg/L (≈ 18.4 mM)
O=C(O)c1c[nH]c2ccccc12 [ICA, indole-3-carboxylic acid]	2000 mg/L (≈ 12.4 mM)	2000 mg/L (≈ 12.4 mM)	2000 mg/L (≈ 12.4 mM)	2000 mg/L (≈ 12.4 mM)	1000 mg/L (≈ 6.21 mM)	1000 mg/L (≈ 6.21 mM)	2000 mg/L (≈ 12.4 mM)	2000 mg/L (≈ 12.4 mM)	4.86%		8.36%	97.59%	122.3%	3.99–8.61%	
C[C@H]1COc2c(N3CCN(C)CC3)c(F)cc3c(=O)c(C(=O)O)cn1c23 [levofloxacin]															accepted MIC values for antibiotics in clinical use [5]: 0.003 mg/L
